Laboratory results reported in US20080096967A1, “Formulations for Injection of Catecholic Butanes, Including Ndga Compounds, Into Animals” (priority 2005, published 2008).

How the values were obtained:
Beagle dogs = test: 7-Day intravenous infusion toxicity study of M4N(CPE) in Beagle dogs; type: in vivo
Protocol: This study was conducted to evaluate the toxicokinetic profile of M4N formulated in 30% HP-β-CD and 25% PEG 300 when administered as a single intravenous infusion dose for seven consecutive days in beagle dogs. This study constitutes the first study of this particular formulation of M4N in dogs and was executed to evaluate the toxicity and compare tolerability of a diluted formulation (10 mg/mL versus 5 mg/mL).
A total of twelve beagle dogs (8 male/4 female) were dosed with M4N via a 54-minute (Group 2) or 108-minute (Groups 1, 3 and 4) intravenous infusion. All animals received seven doses, one per day over seven consecutive days.
The following parameters were evaluated: clinical observations and body weights. Test article analysis was performed on Study Days 1 and 7, blood samples (targeting a volume of 2.0 mL) were collected from each animal from an appropriate vessel at the following time points:
Gross necropsies were performed on Groups 1 and 3 animals and all injection sites were processed for histology. […] Discolored urine appeared in Groups 1 and 3. […] The finding is likely indicative of irritation due to multiple needle insertions in the same dosing area (cephalic vein). […] Finally, sporadic observations of diarrhea, emesis, mucoid feces and soft feces were noted. These observations are common in beagle dogs and were considered stress-induced and not test article-related.

[1] = Solubility of M4N in water-insoluble lipids (visual inspection); type: physicochemical; conditions: for solutions stable: corn oil; for stable at room temperature: sesame oil

COc1ccc(C[C@@H](C)[C@@H](C)Cc2ccc(OC)c(OC)c2)cc1OC [Formulation M4N, meso-1,4-bis(3,4-dimethoxyphenyl)-2,3-dimethylbutane]
injection site histology, treated vs controls (Beagle dogs; Group 3 (90 mg/kg) vs Group 1 (vehicle)): more irritating than the vehicle
gross necropsy findings (Beagle dogs; Groups 1 and 3): No other gross findings
detailed clinical observations (Beagle dogs; Groups 2, 3 and 4 (45 or 90 mg/kg), daily IV infusion for 7 days, 30% HP-β-CD and 25% PEG 300): transient reversible uncoordination of hindlimbs
Stability Time at Room Temperature ([1]; 33% Peppermint Oil, 33% Tween ® 20, 33% PEG 400, M4N 60 mg/mL): >3 days
Dissolution After Heating ([1]; 33% Peppermint Oil, 33% Tween ® 20, 33% PEG 400, M4N 60 mg/mL, 40° C.): Y at 40 °C
Dissolution After Heating ([1]; 40% Peppermint Oil, 40% PEG 400, 20% Glycerol, M4N 52 mg/mL, 40° C.): Y at 40 °C
Dissolution After Heating ([1]; 45% Peppermint Oil, 45% PEG 400, 10% Glycerol, M4N 59 mg/mL, 40° C.): Y at 40 °C
Stability Time at Room Temperature ([1]; 50% Peppermint Oil, 50% PEG 300, M4N 40 mg/mL): >7 days
Dissolution After Heating ([1]; 50% Peppermint Oil, 50% PEG 300, M4N 40 mg/mL, 35° C.): Y at 35 °C
Stability Time at Room Temperature ([1]; 50% Peppermint Oil, 50% PEG 300, M4N 60 mg/mL): >7 days
Dissolution After Heating ([1]; 50% Peppermint Oil, 50% PEG 300, M4N 60 mg/mL, 35° C.): Y at 35 °C
Dissolution After Heating ([1]; 50% Peppermint Oil, 50% PEG 300, M4N 125 mg/mL, 35° C.): Y at 35 °C
Stability Time at Room Temperature ([1]; 50% Peppermint Oil, 50% PEG 400, M4N 40 mg/mL): >7 days
Dissolution After Heating ([1]; 50% Peppermint Oil, 50% PEG 400, M4N 40 mg/mL, 40° C.): Y at 40 °C
Stability Time at Room Temperature ([1]; 50% Peppermint Oil, 50% PEG 400, M4N 60 mg/mL): >7 days
Dissolution After Heating ([1]; 50% Peppermint Oil, 50% PEG 400, M4N 60 mg/mL, 40° C.): Y at 40 °C
Dissolution After Heating ([1]; 50% Peppermint Oil, 50% PEG 400, M4N 100 mg/mL, 40° C.): Y at 40 °C
Dissolution After Heating ([1]; 50% Peppermint Oil, 50% PEG 400, M4N 125 mg/mL, 40° C.): Y at 40 °C
Stability Time at Room Temperature ([1]; 50% Peppermint Oil, 50% Sesame Oil, M4N 20 mg/mL): >3 days
Stability Time at Room Temperature ([1]; 50% Peppermint Oil, 50% Sesame Oil, M4N 40 mg/mL): >3 days
Dissolution After Heating ([1]; 50% Peppermint Oil, 50% Sesame Oil, M4N 40 mg/mL, 40° C.): Y at 40 °C
Stability Time at Room Temperature ([1]; 50% Peppermint Oil, 50% Sesame Oil, M4N 60 mg/mL): >3 days
Dissolution After Heating ([1]; 50% Peppermint Oil, 50% Sesame Oil, M4N 60 mg/mL, 40° C.): Y at 40 °C
Stability Time at Room Temperature ([1]; 50% Peppermint Oil, 50% Tween ® 20, M4N 40 mg/mL): >3 days
Dissolution After Heating ([1]; 50% Peppermint Oil, 50% Tween ® 20, M4N 40 mg/mL, 40° C.): Y at 40 °C
Stability Time at Room Temperature ([1]; 50% Peppermint Oil, 50% Tween ® 20, M4N 60 mg/mL): >3 days
Dissolution After Heating ([1]; 50% Peppermint Oil, 50% Tween ® 20, M4N 60 mg/mL, 40° C.): Y at 40 °C
Dissolution After Heating ([1]; 50% Peppermint Oil, 50% Tween ® 20, M4N 125 mg/mL, 40° C.): Y at 40 °C
Stability Time at Room Temperature ([1]; 60% Peppermint Oil, 40% PEG 300, M4N 60 mg/mL): >3 days
Dissolution After Heating ([1]; 60% Peppermint Oil, 40% PEG 300, M4N 60 mg/mL, 40° C.): Y at 40 °C
Dissolution After Heating ([1]; 60% Peppermint Oil, 40% PEG 400, M4N 60 mg/mL, 40° C.): Y at 40 °C
Stability Time at Room Temperature ([1]; 75% Sesame Oil, 9% Tween ® 20, 16% Glycerol, M4N 24.3 mg/mL): <7 days
Dissolution After Heating ([1]; 75% Sesame Oil, 9% Tween ® 20, 16% Glycerol, M4N 24.3 mg/mL, 60° C.): Y at 60 °C
Dissolution After Heating ([1]; 80% Olive Oil, 20% Soybean Oil, M4N 60 mg/mL, 70° C.): Y at 70 °C
Dissolution After Heating ([1]; 85% Sesame Oil, 15% Tween ® 20, M4N 40 mg/mL, 45° C.): Y at 45 °C
Dissolution After Heating ([1]; 85% Sesame Oil, 15% Tween ® 20, M4N 60 mg/mL, 55° C.): Y at 55 °C
solution upon cooling ([1]; 85% sesame oil and 15% Tween® 20, M4N 60 mg/mL (55° C.) and 40 mg/mL (45° C.)): did not stay in solution
Stability Time at Room Temperature ([1]; 89% Sesame Oil, 11% Tween ® 20, M4N 29 mg/mL): >7 days
Dissolution After Heating ([1]; 89% Sesame Oil, 11% Tween ® 20, M4N 29 mg/mL, 60° C.): Y at 60 °C
Stability Time at Room Temperature ([1]; 100% Corn Oil, M4N 1 mg/mL): >3 days
Dissolution After Heating ([1]; 100% Corn Oil, M4N 1 mg/mL, 60° C.): Y at 60 °C
Stability Time at Room Temperature ([1]; 100% Corn Oil, M4N 10 mg/mL): >3 days
Dissolution After Heating ([1]; 100% Corn Oil, M4N 10 mg/mL, 60° C.): Y at 60 °C
Stability Time at Room Temperature ([1]; 100% Corn Oil, M4N 20 mg/mL): <3 days
Dissolution After Heating ([1]; 100% Corn Oil, M4N 20 mg/mL, 60° C.): Y at 60 °C
Stability Time at Room Temperature ([1]; 100% Corn Oil, M4N 40 mg/mL): <3 days
Dissolution After Heating ([1]; 100% Corn Oil, M4N 40 mg/mL, 60° C.): Y at 60 °C
Stability Time at Room Temperature ([1]; 100% Corn Oil, M4N 50 mg/mL): <3 days
Dissolution After Heating ([1]; 100% Corn Oil, M4N 50 mg/mL, 60° C.): Y at 60 °C
Stability Time at Room Temperature ([1]; 100% Corn Oil, M4N 60 mg/mL): <1 days
Dissolution After Heating ([1]; 100% Corn Oil, M4N 60 mg/mL, 60° C.): Y at 60 °C
Dissolution After Heating ([1]; 100% Corn Oil, M4N 100 mg/mL, 60° C.): Y at 60 °C
Stability Time at Room Temperature ([1]; 100% Mineral Oil, M4N 10 mg/mL): >7 days
Dissolution After Heating ([1]; 100% Mineral Oil, M4N 10 mg/mL, 60° C.): Y at 60 °C
Stability Time at Room Temperature ([1]; 100% Mineral Oil, M4N 50 mg/mL): <1 days
Dissolution After Heating ([1]; 100% Mineral Oil, M4N 50 mg/mL, 60° C.): Y at 60 °C
Dissolution After Heating ([1]; 100% Mineral Oil, M4N 100 mg/mL, 60° C.): Y at 60 °C
Dissolution After Heating ([1]; 100% Mineral Oil, M4N 200 mg/mL, 60° C.): Y at 60 °C
Dissolution After Heating ([1]; 100% Olive Oil, M4N 30 mg/mL, 60° C.): Y at 60 °C
Stability Time at Room Temperature ([1]; 100% Sesame Oil, M4N 10 mg/mL): >3 days
Stability Time at Room Temperature ([1]; 100% Sesame Oil, M4N 20 mg/mL): >3 days
Dissolution After Heating ([1]; 100% Sesame Oil, M4N 20 mg/mL, 60° C.): Y at 60 °C
Stability Time at Room Temperature ([1]; 100% Sesame Oil, M4N 30 mg/mL): <3 days
Dissolution After Heating ([1]; 100% Sesame Oil, M4N 30 mg/mL, 60° C.): Y at 60 °C
Stability Time at Room Temperature ([1]; 100% Sesame Oil, M4N 50 mg/mL): <1 days
Dissolution After Heating ([1]; 100% Sesame Oil, M4N 50 mg/mL, 60° C.): Y at 60 °C
Stability Time at Room Temperature ([1]; 100% Soybean Oil, M4N 10 mg/mL): >7 days
Dissolution After Heating ([1]; 100% Soybean Oil, M4N 10 mg/mL, 60° C.): Y at 60 °C
Dissolution After Heating ([1]; 100% Soybean Oil, M4N 30 mg/mL, 60° C.): Y at 60 °C
Dissolution After Heating ([1]; 100% Soybean Oil, M4N 50 mg/mL, 60° C.): Y at 60 °C
Stability Time at Room Temperature ([1]; Peppermint Oil, M4N 1 mg/mL): >3 days
Stability Time at Room Temperature ([1]; Peppermint Oil, M4N 10 mg/mL): >3 days
Stability Time at Room Temperature ([1]; Peppermint Oil, M4N 20 mg/mL): >3 days
Stability Time at Room Temperature ([1]; Peppermint Oil, M4N 40 mg/mL): >3 days
Dissolution After Heating ([1]; Peppermint Oil, M4N 40 mg/mL, 40° C.): Y at 40 °C
Stability Time at Room Temperature ([1]; Peppermint Oil, M4N 60 mg/mL): <3 days
Dissolution After Heating ([1]; Peppermint Oil, M4N 60 mg/mL, 40° C.): Y at 40 °C
Stability Time at Room Temperature ([1]; Peppermint Oil, M4N 100 mg/mL): <1 days
Dissolution After Heating ([1]; Peppermint Oil, M4N 100 mg/mL, 40° C.): Y at 40 °C
Stability Time at Room Temperature ([1]; Peppermint Oil, M4N 125 mg/mL): <1 days
Dissolution After Heating ([1]; Peppermint Oil, M4N 125 mg/mL, 40° C.): Y at 40 °C
Stability Time at Room Temperature ([1]; Sesame Oil, Tween ® 20 and Glycerol: 10% Oil emulsion in 90% saline, M4N 2.4 mg/mL): <1 days
solutions stable ([1]; M4N 60 mg/mL): less than 1 day
solutions stable ([1]; M4N 1 and 10 mg/mL): greater than 3 days
solutions stable ([1]; M4N 20, 40 and 50 mg/mL): less than 3 days
solution after cooling ([1]; olive oil, M4N 30 mg/mL, soluble at 60° C.): did not remain in solution after cooling
stable at room temperature ([1]; M4N 10 mg/mL and 20 mg/mL): more than 3 days
stable at room temperature ([1]; M4N 30 mg/mL): less than 3 days
